Results published in patent US20050147662A1, “Compounds and compositions for delivering active agents” (Emisphere Technologies, Inc., priority 2003, published 2005).

CN(CCCCCCCC(=O)O)C(=O)c1ccccc1O [Compound 1, 8-[(2-Hydroxy-benzoyl)-methyl-amino]-octanoic acid]
melting point: 85 to 88 °C
